Experimental data from the supplement of paper PMC10307832.

Key:
Assay in all cases: relative viability (nuclei count vs DMSO), 5 days (fraction); higher = more cells survive
[1] = compound: C1=CC=C2C(=C1)N=C(S2)C(C#N)C3=NC(=NC=C3)NCCC4=CN=CC=C4 + CS(=O)(=O)N1CCN(Cc2cc3nc(-c4cccc5[nH]ncc45)nc(N4CCOCC4)c3s2)CC1 [Pictilisib] (partner 1 µM)
How it was run: (§1)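 Dosing by pin tool came one day after lung cancer cell lines were seeded in 1536-well plates, using either one drug or a fixed anchor-drug dose plus five library-drug doses (not always all listed) in √10 steps. After 5 days, nuclei were counted on 4× images. Relative viability is treated-well nuclei count divided by vehicle-well nuclei count, and values are medians of duplicate plates.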

[2] = compound: C1=CC=C2C(=C1)N=C(S2)C(C#N)C3=NC(=NC=C3)NCCC4=CN=CC=C4 + C[C@@H](Oc1cc(-c2cnn(C3CCNCC3)c2)cnc1N)c1c(Cl)ccc(F)c1Cl [Crizotinib] (partner 1 µM)
How it was run: as §1

CUDC-101 + OSI-027 = compound: C#Cc1cccc(Nc2ncnc3cc(OC)c(OCCCCCCC(=O)NO)cc23)c1 [CUDC-101] + COc1cccc2cc(-c3nc([C@H]4CC[C@H](C(=O)O)CC4)n4ncnc(N)c34)[nH]c12 [OSI-027] (partner 0.5 µM)
How it was run: as §1

Vandetanib + Bortezomib = compound: COc1cc2/c(=N/c3ccc(Br)cc3F)nc[nH]c2cc1OCC1CCN(C)CC1 [Vandetanib] + CC(C)C[C@H](NC(=O)[C@H](Cc1ccccc1)NC(=O)c1cnccn1)B(O)O [Bortezomib] (partner 0.002 µM)
How it was run: as §1

Cell Line | relative viability ([1]; first compound 0.005 µM) | relative viability ([1]; first compound 0.01581 µM) | relative viability ([1]; first compound 0.05 µM) | relative viability ([1]; first compound 0.1581 µM) | relative viability ([1]; first compound 0.5 µM) | relative viability ([2]; first compound 0.005 µM) | relative viability ([2]; first compound 0.01581 µM) | relative viability ([2]; first compound 0.05 µM) | relative viability ([2]; first compound 0.1581 µM) | relative viability ([2]; first compound 0.5 µM) | relative viability (CUDC-101 + OSI-027; first compound 0.01 µM) | relative viability (CUDC-101 + OSI-027; first compound 0.03162 µM) | relative viability (CUDC-101 + OSI-027; first compound 0.1 µM) | relative viability (CUDC-101 + OSI-027; first compound 0.3162 µM) | relative viability (CUDC-101 + OSI-027; first compound 1 µM) | relative viability (Vandetanib + Bortezomib; first compound 0.02 µM) | relative viability (Vandetanib + Bortezomib; first compound 0.06325 µM) | relative viability (Vandetanib + Bortezomib; first compound 0.2 µM) | relative viability (Vandetanib + Bortezomib; first compound 0.6325 µM) | relative viability (Vandetanib + Bortezomib; first compound 2 µM)
NCI-H1563 | 0.642 | 0.619 | 0.677 | 0.709 | 0.647 | 0.86 | 0.843 | 0.838 | 0.814 | 0.815 | 0.732 | 0.751 | 0.783 | 0.728 | 0.675 | 0.821 | 0.807 | 1.12 | 0.797 | 0.845
NCI-H1650 | 0.488 | 0.529 | 0.559 | 0.723 | 0.471 | 0.609 | 0.852 | 0.865 | 1.01 | 0.57 | 0.661 | 0.531 | 0.517 | 0.577 | 0.231 | 0.253 | 0.21 |  | 0.209 | 0.195
NCI-H1651 | 0.364 | 0.585 | 0.68 | 0.815 | 0.565 | 0.746 | 0.883 | 0.855 | 0.864 | 0.849 | 0.707 | 0.67 | 0.746 | 0.912 | 0.679 | 0.915 | 0.883 | 0.893 | 0.897 | 0.839
NCI-H1666 | 0.474 | 0.39 | 0.369 | 0.402 | 0.332 | 1.07 | 0.975 | 1.01 | 1 | 0.907 | 0.85 | 0.867 | 0.837 | 0.857 | 0.739 | 0.849 | 0.814 | 0.712 | 0.831 | 0.786
NCI-H1734 | 0.439 | 0.488 | 0.406 | 0.587 | 0.473 | 0.555 | 0.734 | 0.684 | 0.693 | 0.741 | 0.641 | 0.577 | 0.638 | 0.608 | 0.38 | 0.976 | 0.869 | 0.944 | 0.904 | 0.926
NCI-H1755 | 0.392 | 0.35 | 0.379 | 0.576 | 0.384 | 0.809 | 0.964 | 0.844 | 1.02 | 0.831 | 0.624 | 0.729 | 0.794 | 0.781 | 0.571 | 0.998 | 1.04 | 1.07 | 1 | 0.959
NCI-H1792 |  | 0.312 | 0.285 | 0.246 | 0.225 |  | 1.08 | 0.997 | 1.33 | 0.616 | 0.777 | 0.649 | 0.731 | 0.715 | 0.629 | 0.994 | 0.926 | 0.914 | 0.865 | 0.887
NCI-H1915 | 0.933 | 0.929 | 0.923 | 1.1 | 0.879 | 0.718 | 0.955 | 0.928 | 0.994 | 0.565 | 0.627 | 0.597 | 0.591 | 0.551 | 0.404 | 0.947 | 0.885 | 1.07 | 0.973 | 0.943
NCI-H1975 | 0.262 | 0.28 | 0.284 | 0.307 | 0.255 | 0.766 | 1.18 | 0.954 | 1.14 | 0.667 | 0.658 | 0.75 | 0.728 | 0.813 | 0.698 | 0.359 | 0.35 | 0.376 | 0.355 | 0.383
NCI-H1993 | 0.862 | 0.963 | 0.848 | 0.64 | 0.745 | 0.684 | 0.844 | 0.762 | 0.94 | 0.832 | 0.61 | 0.552 | 0.625 | 0.626 | 0.657 | 1.03 | 0.905 | 1.04 | 0.807 | 0.719
NCI-H2009 | 0.853 | 0.644 | 0.845 | 1 | 0.835 | 1 | 0.991 | 0.97 | 1.08 | 0.976 | 0.672 | 0.737 | 0.739 | 0.8 | 0.494 | 0.895 | 0.931 | 1.06 | 0.996 | 1.21
NCI-H2023 | 0.283 | 0.205 | 0.209 | 0.265 | 0.239 | 0.592 | 0.568 | 0.604 | 0.706 | 0.483 | 0.433 | 0.461 | 0.432 | 0.488 | 0.325 | 0.924 | 0.839 | 0.96 | 1.03 | 1.04
NCI-H2085 | 0.43 | 0.43 | 0.39 | 0.483 | 0.388 | 0.682 | 0.887 | 0.792 | 0.825 | 0.792 | 0.577 | 0.646 | 0.728 | 0.835 | 0.535 | 1.08 | 1.02 | 1.02 | 1.09 | 1.04
NCI-H2087 | 0.873 | 0.856 | 0.883 | 1.04 | 0.92 | 0.908 | 0.807 | 0.76 | 0.954 | 0.727 | 0.473 | 0.548 | 0.463 | 0.679 | 0.561 | 0.813 | 0.761 | 0.859 | 0.857 | 0.833
NCI-H2126 | 0.499 | 0.493 | 0.417 | 0.526 | 0.487 | 0.825 | 0.989 | 1.02 | 1.04 | 0.881 | 0.678 | 0.659 | 0.662 | 0.668 | 0.508 | 1.09 | 1.07 | 1.06 | 1.08 | 1.06
NCI-H2228 | 0.341 | 0.283 | 0.37 | 0.307 | 0.402 | 0.464 | 0.444 | 0.483 | 0.454 | 0.386 | 0.406 | 0.689 | 0.671 | 0.615 | 0.419 | 0.775 | 0.942 |  | 1.03 | 0.814
